Laboratory results as given in patent publication US5258300A, “Method of inducing lysine overproduction in plants” (Molecular Genetics Research and Development Limited …, priority 1988, dated 1993).

Assays:
[1] = system: DHDP synthase activity in the leaves of 327; assay: DHDP synthase activity (o-aminobenzaldehyde assay) in leaf extracts of 327; type: biochemical, Nicotiana tabacum SR1 (E. coli dap A gene); conditions: 327 leaf extract
Experimental: (§1) Young leaves of 327 and seed-grown NT-SR1 plants were extracted as follows. One to two grams of deribbed leaves were ground at 4° C. in 2 ml extraction buffer (0.1M potassium phosphate (pH 7.5 at 4° C.), 2 mM EDTA, 1 mM β-mercaptoethanol, 10 mM sodium pyruvate) in the presence of 0.14 gm polyvinylpyrrolidone per gram of tissue. The extract was filtered through Miracloth (Calbiochem) and then centrifuged for 10 minutes at 8000×g (4° C.). The supernatant was slowly brought to 40% saturation by adding finely ground solid ammonium sulfate at 4° C. with gentle stirring. The precipitate was removed by centrifugation. The supernatant was brought to 66% ammonium sulfate saturation and the 40-66% precipitate was collected by centrifugation as before. The pellet was resuspended in column buffer (50 mM Tris-HCl (pH 7.5 at 4° C.), 1 mM EDTA, 10 mM sodium pyruvate, 10% glycerol) and passed through a Sephadex G-25 column (Sigma) to desalt.
(§2) Protein concentrations were determined by the dye-binding method of Bradford (REF) using bovine serum albumin fraction V powder in distilled water as the standard.
(§3) Dihydrodipicolinic acid synthase activity was monitored using the o-aminobenzaldehyde (ABA) assay (Yugari et al., J. Biol. Chem., 240, 4710-4716 (1965)). […] The pink color was allowed to develop for one hour at 25° C. and then the optical density was measured at 520 nm.

[2] = target: T1, DHDP synthase activity in NT-SR1 leaves (Nicotiana tabacum, UniProt Q42948); assay: DHDP synthase activity (o-aminobenzaldehyde assay) in leaf extracts of seed-grown NT-SR1; type: biochemical; conditions: NT-SR1 leaf extract
T1 construct: Young leaves of 327 and seed-grown NT-SR1 plants were extracted as follows; from tissue; host or cells: young leaves of seed-grown NT-SR1 plants, 40-66% ammonium sulfate fraction of the leaf extract
T1 sequence (Q42948 34-359): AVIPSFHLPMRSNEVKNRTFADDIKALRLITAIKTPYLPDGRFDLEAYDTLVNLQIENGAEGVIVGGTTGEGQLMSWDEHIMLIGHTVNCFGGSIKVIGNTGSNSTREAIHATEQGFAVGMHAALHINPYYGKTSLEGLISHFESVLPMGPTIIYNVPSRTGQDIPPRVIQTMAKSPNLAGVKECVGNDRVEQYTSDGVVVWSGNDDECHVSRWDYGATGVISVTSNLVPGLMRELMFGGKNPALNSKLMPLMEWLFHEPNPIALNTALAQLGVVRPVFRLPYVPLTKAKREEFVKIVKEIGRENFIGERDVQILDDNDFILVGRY
Experimental: as §1, §2, §3

[3] = system: Dihydrodipicolinic acid synthase; conditions: in vitro; cited from earlier work
[4] = system: leaf disks from plant 327; assay: Leaf disk AEC screen, dap A+ plant 327; type: cell-based, Nicotiana tabacum SR1
Experimental: (§4) Plant tissue was initially screened for expression of the introduced dap A gene by evaluating resistance to the lysine analog S(2-aminoethyl)cysteine(AEC). AEC is a potent inhibitor of dihydrodipicolinic acid synthase of plants, but the bacterial DHDPS is much less sensitive to it. Leaf disks were prepared from surface-sterilized leaves as described in the transformation protocol. The disks were placed, (four disks per plate, two plates per treatment) on shooting medium supplemented with 1 mM L-arginine and AEC at 0, 0.1, 0.2 or 0.4 mM. Plates containing shooting medium supplemented with 75 μg/ml kanamycin were included for each plant tested to check the selectable marker. After one week at 26° C. in the light, the individual leaf disks were weighed and the average fresh weight and standard deviation were determined for each treatment.

[5] = system: leaf disks from water control plant 101; assay: Leaf disk AEC screen, water control plant 101; type: cell-based, Nicotiana tabacum SR1
Experimental: as §4

[6] = system: seedlings of self-pollinated 327; assay: AEC resistance in seedlings, progeny of 327; type: in vivo, Nicotiana tabacum SR1; conditions: Nicotiana tabacum, 336 h, two weeks postplating, read-out: Avg. Root Length
Experimental: (§5) Tobacco plant 327 flowered and was allowed to self-pollinate and produce seed. Mature, dry seed was collected, surface-sterilized with 10% bleach, and rinsed well with sterile water. Seeds were plated (50 seeds per plate, two plates per treatment) on gridded germination plates (1/4 MS salts, 2.5 gm/l Gelrite) containing AEC at 0, 1, 10, 30, 100 and 300 μM AEC. Seeds from self-pollinated 101 were treated identically as controls. All seeds germinated in 3-4 days. After 10 days, the number of green seedlings on each plate was counted. After two weeks, the seedlings were gently pulled from the Gelrite and root lengths were measured.

[7] = system: seedlings of self-pollinated 101; assay: AEC resistance in seedlings, progeny of 101; type: in vivo, Nicotiana tabacum SR1; conditions: Nicotiana tabacum, 336 h, two weeks postplating, read-out: Avg. Root Length
Experimental: as §5

With `NCCCC[C@H](N)C(=O)O` [L-lysine] the “Inhibition of DHDP synthase activity” value ([1]; 100 μM L-lysine) was “completely resistant”, the “Inhibition of DHDP synthase activity” value ([1]; 500 μM L-lysine) was 14% and the inhibition at 100 µM ([2]; 100 μM L-lysine) was 87%. The “Inhibition of DHDP synthase activity” value ([2]; 500 μM L-lysine) was “no activity could be detected” and the “Lower sensitivity of E. coli DHDPS to inhibition by lysine compared to the same enzyme from plants” value [3] was “at least 200 fold”.

For `NCCSCC(N)C(=O)O` (stereo not drawn) [AEC, S(2-aminoethyl)cysteine], the activity at 100 µM ([4]; Nicotiana tabacum, foliar, 168 h, AEC 0.1 mM, plant 327 leaf disks, after one week, read-out: Fresh Weight) was 88%, the activity at 200 µM ([4]; Nicotiana tabacum, foliar, 168 h, AEC 0.2 mM, plant 327 leaf disks, after one week, read-out: Fresh Weight) was 81% and the activity at 400 µM ([4]; Nicotiana tabacum, foliar, 168 h, AEC 0.4 mM, plant 327 leaf disks, after one week, read-out: Fresh Weight) was 71%. The “Leaf disk growth in the presence of AEC” value ([4]; putative dap A+ plants) was “remain green and growing”, the activity at 100 µM ([5]; Nicotiana tabacum, foliar, 168 h, AEC 0.1 mM, plant 101 leaf disks, after one week, read-out: Fresh Weight) was 32% and the activity at 200 µM ([5]; Nicotiana tabacum, foliar, 168 h, AEC 0.2 mM, plant 101 leaf disks, after one week, read-out: Fresh Weight) was 15%. The activity at 400 µM ([5]; Nicotiana tabacum, foliar, 168 h, AEC 0.4 mM, plant 101 leaf disks, after one week, read-out: Fresh Weight) was 10%, the “Leaf disk growth in the presence of AEC” value ([5]; control plants) was “strongly inhibited” and the Leaf disk appearance ([5]; control plants, medium containing at least 0.2 mM AEC) was “brown and shriveled”. It also gave an activity at 1 µM ([6]; AEC 1 μM) of 111%, an activity at 3 µM ([6]; AEC 3 μM) of 87% and an activity at 10 µM ([6]; AEC 10 μM) of 51%. It also gave an activity at 30 µM ([6]; AEC 30 μM) of 46%, an activity at 100 µM ([6]; AEC 100 μM) of 21% and an activity at 1 µM ([7]; AEC 1 μM) of 46%. The activity at 3 µM ([7]; AEC 3 μM) was 33%, the activity at 10 µM ([7]; AEC 10 μM) was 27% and the activity at 30 µM ([7]; AEC 30 μM) was 18%. The activity at 100 µM ([7]; AEC 100 μM) was 0%.
